The test system of assay [1] is cell cycle progression in M-phase. Put plainly: Analysis of cell cycle status: M-phase block (phospho-Histone 3 serine 10, ArrayScan). Conditions: 5 hours incubation; vs 500 nM vinblastine (100% M-phase block) and DMSO (0%); read-out: M-phase block activities (IC50 range). It counts as cell-based. Here is the method:
Cells are seeded onto 96-well Packard View plates and incubated overnight. Test compounds are added to individual wells the following day at 10× concentrations and the plates returned to the incubator.
For identification of compounds that blocked cell cycle progression in M-phase, cells are incubated with compounds for 5 hours. After incubation, the cell growth media is removed and the cell monolayers are fixed with 3.7% formaldehyde, followed by treatment with 0.1% Triton X-100, and probed with a monoclonal phospho-specific Histone 3 serine 10 antibody. Bound primary antibody is detected with a FITC or TRITC conjugated secondary antibody. The cellular DNA is stained using Hoechst dye. Fixed cells are visualized using an ArrayScan 4.5 HCS plate reader. Cells positive for antibody binding are identified and quantified using the Target Activation Algorithm. IC50 Data from test compounds is generated by comparing test compound activity to the percentage of cells in M-phase detected in 500 nM vinblastine treated cells (100% M-phase block), and the percentage of M-phase cells detected in the DMSO control treated cells (0% M-phase block).

The test system of another assay is PC-3 cell proliferation. The assay can be described thus: Cell proliferation assay (Cyquant DNA assay). The assay is classed as cell-based. Conditions: Homo sapiens; PC-3 cells, 2-5 days incubation, vs DMSO (100%) and 10 μM Actinomycin D (0%); read-out: inhibitory activities against PC-3 cell proliferation (IC50 range). Here is the method: A panel of cancer cell lines is obtained from the DCTP Tumor Repository, National Cancer Institute (Frederick, Md.) or ATCC (Rockville, Md.). Cell cultures are maintained in Hyclone RPMI 1640 medium (Logan, Utah) supplemented with 10% fetal bovine serum and 20 mM HEPES buffer, final pH 7.2, at 37° C. with a 5% CO2 atmosphere. Cultures are maintained at sub-confluent densities.
For proliferation assays, cells are seeded with the appropriate medium into 96 well plates at 1,000-2,500 cells per well, depending on the cell line, and are incubated overnight. The following day, test compound, DMSO solution (negative control), or Actinomycin D (positive control) is added to the appropriate wells as 10× concentrated stocks prepared in phosphate buffered saline. The cell plates where then incubated for an additional 2-5 days, depending on the cell line, to allow proliferation to occur. To measure cell density, growth medium is removed from the adherent cell lines, and the plates stored at −80° C. Using these assay plates, relative amounts of DNA in each well is determined using the Cyquant DNA assay kit from […] (Eugene, Oreg.) following the manufacturer's directions. Results for each compound treatment are compared to DMSO vehicle control (100%) and 10 μM Actinomycin D treated cells (0%).

Where only a bound is given, the exact number is not on record here.

On to `NC(=O)c1ccc(-n2c3c(c4ccccc42)C(=O)CCC3)c(C(F)(F)F)c1` [Compound 29, 4-(4-Oxo-1,2,3,4-tetrahydro-carbazol-9-yl)-3-trifluoromethyl-benzamide], for which the IC50 in assay [1] is < 500 nM.
With `C/C(=N\O)c1cn(-c2ccc(C(N)=O)cc2Cl)c2ccccc12` [Compound 7, 4-(3-(1-hydroxyimino-ethyl)-indol-1-yl)-3-chloro-benzamide], the IC50 in the assay on PC-3 cell proliferation is < 500 nM.
Consider `CC(=O)c1cn(-c2ccc(C(N)=O)cc2Cl)c2cc(Cl)ccc12` [Compound 44, 4-(3-Acetyl-6-chloro-indol-1-yl)-3-chloro-benzamide], for which, in assay [1], the IC50 was < 500 nM.
Consider `NC(=S)c1ccc(-n2c3c(c4ccccc42)C(=O)CCC3)c(Br)c1` [Compound 5, 3-Bromo-4-(4-oxo-1,2,3,4-tetrahydro-carbazol-9-yl)thiobenzamide], for which the IC50 in the assay with PC-3 cell proliferation is < 500 nM.
On the same count and under the same terms, the result for `C=CCNc1cc(-n2c3c(c4ccccc42)C(=O)CCC3)ccc1C(N)=O` [Compound 20, 2-Allylamino-4-(4-oxo-1,2,3,4-tetrahydro-carbazol-9-yl)-benzamide] reads 500 to 5000 nM; that for `NC(=O)c1ccc(C(F)(F)F)c(-n2c3c(c4ccccc42)C(=O)CCC3)c1` [Compound 14, 3-(4-Oxo-1,2,3,4-tetrahydro-carbazol-9-yl)-4-trifluoromethyl-benzamide], 5000 to 50000 nM.
For `CC(=O)c1cn(-c2ccc(NC(N)=O)cc2Cl)c2ccc(Cl)cc12` [Compound 17, [4-(3-Acetyl-5-chloro-indol-1-yl)-3-chloro-phenyl]-urea], the IC50 in assay [1] fell in the range of 500 to 5000 nM.
For `CC(=O)NC(=O)Nc1ccc(-n2c3c(c4ccccc42)C(=O)CCC3)c(Cl)c1` [Compound 40, 1-Acetyl-3-[3-chloro-4-(4-oxo-1,2,3,4-tetrahydro-carbazol-9-yl)-phenyl]-urea], the IC50 in assay [1] was < 500 nM.
Consider `NC(=O)Nc1ccc(-n2c3c(c4ccccc42)C(=O)CCC3)c(Cl)c1` [Compound 13, 1-(3-chloro-4-(4-oxo-3,4-dihydro-1H-carbazol-9(2H)-yl)phenyl)urea], for which, in the assay with PC-3 cell proliferation, the IC50 was < 500 nM.
Turning to `CC(=O)c1cn(-c2ccc(C(N)=O)cc2Cl)c2ccccc12` [Compound 6, 4-(3-Acetyl-indol-1-yl)-3-chloro-benzamide], the IC50 in the assay on PC-3 cell proliferation is < 500 nM.
As to `C=CCNc1ccc(-n2c3c(c4ccccc42)C(=O)CCC3)c(C(F)(F)F)c1` [Compound 38, 9-(4-Allylamino-2-trifluoromethyl-phenyl)-1,2,3,9-tetrahydro-carbazol-4-one], the IC50 in assay [1] fell in the range of 500 to 5000 nM.
Take `NC(=O)c1ccc(-n2c3c(c4ccccc42)C(=O)CCC3)c(Cl)c1` [Compound 2, 3-Chloro-4-(4-oxo-1,2,3,4-tetrahydro-carbazol-9-yl)benzamide]: the IC50 in the assay with PC-3 cell proliferation was < 500 nM.
For `COCCNc1ccc(-n2c3c(c4ccccc42)C(=O)CCC3)c(C(F)(F)F)c1` [Compound 10, 9-[4-(2-methoxy-ethylamino)-2-trifluoromethyl-phenyl]-1,2,3,9-tetrahydro-carbazol-4-one], the IC50 with PC-3 cell proliferation was 500 to 5000 nM.
On to `COCCNc1cc(-n2cc(C(C)=O)c3ccccc32)ccc1C(N)=O` [Compound 35, 4-(3-Acetyl-indol-1-yl)-2-(2-methoxy-ethylamino)-benzamide], for which the IC50 in assay [1] lay within 500 to 5000 nM.
Regarding `NC(=O)c1ccc(-n2c3c(c4ccccc42)C(=O)NCC3)c(Cl)c1` [Compound 22, 3-Chloro-4-(1-oxo-1,2,3,4-tetrahydro-pyrido[4,3-b]indol-5-yl)-benzamide], in the assay on PC-3 cell proliferation, the IC50 fell in the range of 500 to 5000 nM.
On to `NC(=O)Nc1ccc(-n2c3c(c4cc(Cl)ccc42)C(=O)CCC3)c(Cl)c1` [Compound 41, [3-Chloro-4-(6-chloro-4-oxo-1,2,3,4-tetrahydro-carbazol-9-yl)-phenyl]-urea], for which the IC50 in assay [1] is < 500 nM.
As for `COc1cc(-n2cc(C(C)=O)c3ccccc32)ccc1C(N)=O` [Compound 43, 4-(3-Acetyl-indol-1-yl)-2-methoxy-benzamide], in assay [1], the IC50 was < 500 nM.
Take `NC(=O)c1ccc(-n2c3c(c4ccccc42)/C(=N/O)CCC3)c(Br)c1` [Compound 4, 3-Bromo-4-(4-hydroxyimino-1,2,3,4-tetrahydro-carbazol-9-yl)benzamide]: the IC50 in the assay on PC-3 cell proliferation is 500 to 5000 nM.
As for `CC(=O)c1cn(-c2ccc(N)cc2Cl)c2cc(Cl)ccc12` [Compound 18, 1-[1-(4-Amino-2-chloro-phenyl)-6-chloro-1H-indol-3-yl]-ethanone], the IC50 in assay [1] lay within 500 to 5000 nM.
Regarding `CC(=O)c1cn(-c2ccc(N)cc2Br)c2ccccc12` [Compound 37, 1-[1-(4-Amino-2-bromo-phenyl)-1H-indol-3-yl]-ethanone], the IC50 in assay [1] fell in the range of 5000 to 50000 nM.
